# Data published in PubChem BioAssay AID504576 (Southern Research Specialized Biocontainment Screening …, 2011).
# Test system: MAGI cells cytotoxicity, 2% serum, % cell control
# Experiment: MAGI cell cytotoxicity, R5 antiviral format, dose response, cytotoxicity control for HIV-1 antiviral lead project, CCR5-tropic MAGI assay, 2% serum, set 4 (AID 504576)
row,SMILES,CC50
1,Cc1c2c(=O)n(-c3nc4ccccc4s3)nc-2cc(O)n1CCc1cccs1,74.8 µM
2,Cc1c2c(=O)n(-c3nc4ccccc4s3)nc-2cc(O)n1CCC(C)C,65 µM
3,COc1ccc(Cn2c(O)cc3nn(-c4nc5ccccc5s4)c(=O)c-3c2C)cc1,41.1 µM
4,Cc1c2c(=O)n(-c3nc4ccccc4s3)nc-2cc(O)n1Cc1ccccc1Cl,32.9 µM
5,Cc1c2c(=O)n(-c3nc4ccccc4s3)nc-2cc(O)n1CCc1ccc(O)cc1,20.5 µM
6,COc1ccccc1Cn1c(O)cc2nn(-c3nc4ccccc4s3)c(=O)c-2c1C,43.2 µM
7,COc1ccc(CCn2c(O)cc3nn(-c4nc5ccccc5s4)c(=O)c-3c2C)cc1,13.8 µM
